Consider 22 compounds from ChEMBL document CHEMBL1134879, “3D-QSAR studies on 4-hydroxyphenylpyruvate dioxygenase inhibitors by comparative molecular field analysis (CoMFA)” (Bioorg Med Chem Lett, 2002).

Assay [1] addresses T1, 4-hydroxyphenylpyruvate dioxygenase (Sus scrofa, UniProt Q02110). Nature of the assay: Concentration required to achieve 50% inhibition against 4-Hydroxyphenylpyruvate dioxygenase (HPPD) from pig liver; (observed value).
In assay [2] the target is T1, 4-hydroxyphenylpyruvate dioxygenase. Nature of the assay: Concentration required to achieve 50% inhibition against 4-Hydroxyphenylpyruvate dioxygenase (HPPD) from pig liver.
The target is the same in assay [3]. Nature of the assay: Concentration required to achieve 50% inhibition against 4-hydroxyphenylpyruvate dioxygenase from pig liver.
The target is the same in assay [4]. The assay is described as follows: Concentration required to achieve 50% inhibition against 4-hydroxyphenylpyruvate dioxygenase from pig liver; (observed value).

T1 sequence (Q02110 whole entry): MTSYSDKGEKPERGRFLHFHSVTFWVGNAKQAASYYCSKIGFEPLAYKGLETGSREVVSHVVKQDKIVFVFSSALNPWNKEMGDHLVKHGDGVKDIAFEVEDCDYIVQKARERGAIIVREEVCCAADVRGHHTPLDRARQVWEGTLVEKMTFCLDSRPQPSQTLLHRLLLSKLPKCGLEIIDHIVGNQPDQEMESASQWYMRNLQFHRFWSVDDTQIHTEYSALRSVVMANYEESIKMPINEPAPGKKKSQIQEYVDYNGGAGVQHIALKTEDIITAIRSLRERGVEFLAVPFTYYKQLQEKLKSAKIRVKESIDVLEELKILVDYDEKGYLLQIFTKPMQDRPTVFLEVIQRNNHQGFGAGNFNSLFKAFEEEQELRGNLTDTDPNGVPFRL

Consider `COC1=CC(=O)C(OC(=O)C2CC2)=CC1=O`, for which the IC50 (in general, the midpoint of a concentration-inhibition curve) was 30200 nM in assay [1] and 30000 nM in assay [2].
On to `O=C1CCCC(OC(=O)C2CC2)=C1Cl`, for which the IC50 in assay [1] and in assay [2] was 20 nM in each case.
Consider `O=C(Oc1cc(=O)oc2ccccc12)C1CC1`, for which the IC50 in assay [1] and in assay [2] was 110 nM throughout.
On to `O=C1CCCC(=O)C1=C(O)c1ccccc1I`, for which the half-maximal inhibitory concentration (IC50) in assay [1] is 759 nM; in assay [2] it was 760 nM.
As to `CCC(=O)C1=C(O)CCCC1=O`, the IC50 in assay [3] and in assay [4] was 17800 nM each time.
For `CC(=O)C1=C(O)CCCC1=O`, the IC50 in assay [3] and in assay [4] was 11200 nM each time.
Regarding `COc1ccccc1C(O)=C1C(=O)CCCC1=O`, the IC50 in assay [1] and in assay [2] was 11700 nM in each case.
In assay [2], `CS(=O)(=O)c1ccc(C(O)=C2C(=O)CCCC2=O)c(Cl)c1` registered an IC50 of 50 nM.
Regarding `CC1(C)CC(=O)C=C(OC(=O)C2CC2)C1`, the IC50 is 331 nM in assay [1] and 330 nM in assay [2].
On to `O=C1CCCC(O)=C1C(=O)C1CCCCC1`, for which the results for the 50% inhibitory concentration (IC50) in assay [3] and in assay [4] were 365000 nM and 363000 nM, respectively.
As to `CCOC(=O)C1CC(=O)C=C(OC(=O)C2CC2)C1` (stereo not drawn), the half-inhibitory concentration (IC50) is 89.1 nM in assay [1] and 90 nM in assay [2].
Taken in the same sequence, the figures for `O=C1CCCC(=O)C1=C(O)c1ccccc1C(F)(F)F` were 251 nM and 250 nM.
Consider `O=C1C=C(OC(=O)C2CC2)CC1`, for which the IC50 in assay [1] was 70.8 nM; in assay [2] it was 70 nM.
For the compound `Cc1ccccc1C(O)=C1C(=O)CCCC1=O`, the IC50 in assay [1] is 3720 nM; in assay [2], 3750 nM.
On to `O=C1CCCC(=O)C1=C(O)c1ccccc1`, for which the IC50 in assay [1] and in assay [2] was 11200 nM in each case.
As to `O=C1CCCC(O)=C1C(=O)C1CC1`, the IC50 in assay [3] is 6000 nM; in assay [4] it was 6030 nM.
Taken in the same sequence, the figures for `CC(C)C(=O)C1=C(O)CCCC1=O` were 93300 nM and 93300 nM.
Regarding `O=C1CCCC(=O)C1=C(O)c1ccccc1Br`, the half-inhibitory concentration (IC50) in assay [1] is 562 nM; in assay [2], 560 nM.
On to `O=C1CCCC(=O)C1=C(O)c1ccccc1Cl`, for which the IC50 was 501 nM in assay [1] and 500 nM in assay [2].
Consider `O=C(Oc1cccc(O)c1)C1CC1`, for which the IC50 was 251 nM in assay [1] and 250 nM in assay [2].
As to `O=C1CCCC(OC(=O)C2CC2)=C1Br`, the IC50 was 30.2 nM in assay [1] and 30 nM in assay [2].
Regarding `CCOC(=O)C1CC(=O)C(C(=O)C2CC2)=C(OC(=O)C2CC2)C1` (stereo not drawn), the values for the IC50 in assay [1] and in assay [2] were 39.8 nM and 40 nM, respectively.
